From US11524010B2, “Substituted quinazoline sulfonamides as thioredoxin interacting protein (TXNIP) inhibitors” (SOUTHERN RESEARCH INSTITUTE, priority 2017, dated 2022)

Legend:
[1] = INS-1 cell viability (Cell Titer-Glo, ATP); format: cell-based, Rat; details: rat, INS-1 cells, 72 hrs treatment
Description: INS-1 cell viability was determined based on quantification of ATP using Cell Titer-Glo Luminescent Cell Viability Assay kit (Promega #G7572), which indicates the presence of metabolically active cells. Briefly, INS-1 cells were seeded into 96-well plates at a cell density of 4.5×10^4 and 3.5×10^4 cells per well and incubated overnight at 37° C. with 5% CO2. On the following day, cells were treated with compounds for 24 hrs and 72 hrs respectively. Cell Titer-Glo reagent was added to the cells and Luminescence was acquired on Synergy 4 Reader ([…]).

TXNIP = experiment: Inhibition of glucose-induced endogenous TXNIP expression in INS-1 cells (qRT-PCR); format: cell-based, Rat; details: 25 mM glucose; for inhibition at 1.5 µM / inhibition at 12.5 µM: Rattus norvegicus, INS1, 24 h
Description: The Rat INS-1 cell line was obtained from UAB and maintained in RPMI-1640 (Invitrogen #11875) supplemented with 10% fetal bovine serum (FBS), 100 U/ml penicillin and […] streptomycin, 10 mM HEPES, 1 mM Sodium Pyruvate, 50 μM 2-Mercaptoethanol, and 11.1 mM Glucose in a humidified incubator with a 5% C02 atmosphere at 37° C. 4×10^4 cells per well were seeded to 96-well plate and incubated at 37° C. overnight. A subset of the cells were then cultured in medium with 5 mM Glucose for 24 hrs and then treated in medium with 25 mM glucose with or without compounds to be tested for another 24 hrs.
For the primary high throughput screening (HTS) assay, stably transfected, monoclonal INS-1 cells were split using Trypsin (2 ml per T75 flask) and seeded at a density of 10^4/well in a 384-well plate and incubated overnight at low, 5 mM glucose. The next day, the medium was changed to high glucose (25 mM) or high glucose plus the small molecules to be tested and luciferase assays were performed 24 h later. […] For secondary screens, total RNA was extracted from 96-well cultured cells using RNeasy 96 kit (Qiagen #74181) following the manufacturer's protocol using spin technology. Then a one-step qRT-PCR amplification was performed using QuantiFast SYBR Green RT-PCR kit (Qiagen #204154) and was carried out in a 10 μl reaction which consisted of 2 μl RNA, 0.5 μM each of primers (Rat TXNIP 5′ primer: […] (SEQ ID NO:1) and Rat TXNIP 3′ primer: […] (SEQ ID NO:2); Or Rat 18S rRNA 5′ primer: […] (SEQ ID NO:3) and Rat 18S rRNA 3′ primer: […]) (SEQ ID NO:4), 5 μl 2×SYBR Green Master Mix, 0.1 μl 10× QuantiFast RT Mix. The SYBR Green assay was performed using a LightCycler 480 II (Roche Applied Science) with an initial incubation at 50° C. for 10 min for RT followed by denaturation at 95° C. for 5 min. Forty cycles of amplification were performed using a thermal cycling profile of 95° C. for 10s, 60° C. for 30 s. Subsequently, a melting curve was recorded by holding at 95° C. for 60 s, cooling to 60° C. for 60 s, and then heating at 0.11° C./s up to 95° C. The data was collected and analyzed using the LightCycler 480 Software Release 1.5.0 SP3. The relative amount of TXNIP mRNA was normalized to 18 s rRNA level as a housekeeping gene, and the data was analyzed according to the 2^−ΔΔCT method (1). The transformed data was expressed as % inhibition and compound IC50 calculated by a 4-parameter logistic fit of the data using GraphPad Prism 7.

Structure (SMILES) | CC50 at 72 h [1] | inhibition at 1.5 µM (TXNIP; 1.5 μM compound) | inhibition at 12.5 µM (TXNIP; 12.5 μM compound) | TXNIP % Inhibition at 1.5 μM (TXNIP; 1.5 μM compound, 24 hrs) | TXNIP % Inhibition at 12.5 μM (TXNIP; 12.5 μM compound, 24 hrs)
CS(=O)(=O)NCC1CCCN(c2ncnc3cc(F)c(C(F)(F)F)cc23)C1 (centres unmarked) [Compound 30, N-((1-(7-fluoro-6-(trifluoromethyl)quinazolin-4-yl)piperidin-3-yl)methyl)methane-sulfonamide] | > 100 µM | 9% | 33% | – | –
CS(=O)(=O)NCC1CCCN(c2ncnc3cc(F)c(C#N)cc23)C1 (centres unmarked) [Compound 29, N-((1-(6-cyano-7-fluoroquinazolin-4-yl)piperidin-3-yl)methyl)methanesulfonamide] | > 100 µM | 39% | 66% | – | –
O=S(=O)(NCC1CCCN(c2ncnc3ccc(C(F)(F)F)cc23)C1)C1CCCCC1 (centres unmarked) [Compound 55, N-((1-(6-(trifluoromethyl)quinazolin-4-yl)piperidin-3-yl)methyl)cyclohexanesulfonamide] | 7 µM | 29% | 41% | – | –
CS(=O)(=O)NCC1CCCN(c2ncnc3cc(C#N)c(F)cc23)C1 (centres unmarked) [Compound 20, N-((1-(7-cyano-6-fluoroquinazolin-4-yl)piperidin-3-yl)methyl)methanesulfonamide] | > 100 µM | 19% | 30% | – | –
CS(=O)(=O)NCC1CCCN(c2ncnc3cc(C(=O)O)ccc23)C1 (centres unmarked) [Compound 18, 4-(3-(methylsulfonamidomethyl)piperidin-1-yl)quinazoline-7-carboxylic acid] | > 100 µM | 10% | 10% | – | –
CS(=O)(=O)NCC1CCCN(c2nc(N3CCOCC3)nc3ccccc23)C1 (centres unmarked) [Compound 17, N-((1-(2-morpholinoquinazolin-4-yl)piperidin-3-yl)methyl)methanesulfonamide] | > 100 µM | 0% | 15% | – | –
CS(=O)(=O)NCC1CCCN(c2nc[n+]([O-])c3ccc(C(F)(F)F)cc23)C1 (centres unmarked) [Compound 61, 4-(3-(methylsulfonamidomethyl)piperidin-1-yl)-6-(trifluoromethyl)quinazoline 1-oxide] | > 100 µM | 2% | 25% | – | –
N#Cc1cc2ncnc(N3CCCC(CNS(=O)(=O)C(F)(F)F)C3)c2cc1F (centres unmarked) [Compound 53, N-((1-(7-cyano-6-fluoroquinazolin-4-yl)piperidin-3-yl)methyl)-1,1,1-trifluoromethanesulfonamide] | > 100 µM | 7% | 24% | – | –
CS(=O)(=O)NCC1CCCN(c2ncnc3c(F)cccc23)C1 (centres unmarked) [Compound 3, N-((1-(8-fluoroquinazolin-4-yl)piperidin-3-yl)methyl)methanesulfonamide] | > 100 µM | 4% | 59% | – | –
CS(=O)(=O)NCC1CCCN(c2ncnc3cc(F)ccc23)C1 (centres unmarked) [Compound 4, N-((1-(7-fluoroquinazolin-4-yl)piperidin-3-yl)methyl)methanesulfonamide] | > 100 µM | 24% | 16% | – | –
CS(=O)(=O)NC1CCCN(c2ncnc3cc(F)c(C(F)(F)F)cc23)C1 (centres unmarked) [Compound 39, N-(1-(7-fluoro-6-(trifluoromethyl)quinazolin-4-yl)piperidin-3-yl)methanesulfonamide] | > 100 µM | 7% | 28% | – | –
CS(=O)(=O)NCC1CCCN(c2ncnc3ccc(S(C)(=O)=O)cc23)C1 (centres unmarked) [Compound 14, N-((1-(6-(methylsulfonyl)quinazolin-4-yl)piperidin-3-yl)methyl)methanesulfonamide] | > 100 µM | 0% | 24% | – | –
CS(=O)(=O)NCC1CCN(c2ncnc3ccc(F)cc23)CC1 [Compound 44, N-((1-(6-fluoroquinazolin-4-yl)piperidin-4-yl)methyl)methanesulfonamide] | > 100 µM | 4% | 22% | – | –
CS(=O)(=O)NCC1CCCN(c2ncnc3ccc(F)cc23)C1 (centres unmarked) [Compound 1, N-((1-(6-fluoroquinazolin-4-yl)piperidin-3-yl)methyl)methanesulfonamide] | > 100 µM | 44% | 54% | – | –
CS(=O)(=O)NC1CCCN(c2ncnc3ccc(C(F)(F)F)cc23)C1 (centres unmarked) [Compound 38, N-(1-(6-(trifluoromethyl)quinazolin-4-yl)piperidin-3-yl)methanesulfonamide] | > 100 µM | 34% | 60% | – | –
CS(=O)(=O)NCC1CCCN(c2ncnc3c(Cl)cc(F)cc23)C1 (centres unmarked) [Compound 10, N-((1-(8-chloro-6-fluoroquinazolin-4-yl)piperidin-3-yl)methyl)methanesulfonamide] | > 100 µM | 23% | 51% | – | –
CC(NS(C)(=O)=O)C1CCCN(c2ncnc3cc(F)c(F)cc23)C1 (centres unmarked) [Compound 45, N-(1-(1-(6,7-difluoroquinazolin-4-yl)piperidin-3-yl)ethyl)methanesulfonamide] | > 100 µM | 22% | 44% | – | –
CC(C)(C)C(=O)Nc1ccc2ncnc(N3CCCC(CNS(C)(=O)=O)C3)c2c1 (centres unmarked) [Compound 25, N-(4-(3-(methylsulfonamidomethyl)piperidin-1-yl)quinazolin-6-yl)pivalamide] | > 100 µM | 28% | 51% | – | –
CS(=O)(=O)NCC1CCCN(c2ncnc3ccc(-c4ccccn4)cc23)C1 (centres unmarked) [Compound 27, N-((1-(6-(pyridin-2-yl)quinazolin-4-yl)piperidin-3-yl)methyl)methanesulfonamide] | 70 µM | 9% | 4% | – | –
CS(=O)(=O)NCC1CCCN(c2nc(-c3ccccc3)nc3ccccc23)C1 (centres unmarked) [Compound 9, N-((1-(2-phenylquinazolin-4-yl)piperidin-3-yl)methyl)methanesulfonamide] | 71 µM | 0% | 10% | – | –
CS(=O)(=O)NCC1CCCN(c2ncnc3ccc(N4CCOCC4)cc23)C1 (centres unmarked) [Compound 24, N-((1-(6-morpholinoquinazolin-4-yl)piperidin-3-yl)methyl)methanesulfonamide] | > 100 µM | 20% | 20% | – | –
CS(=O)(=O)NCC1CCCN(c2ncnc3ccc(NC(=O)c4ccccn4)cc23)C1 (centres unmarked) [Compound 28, N-(4-(3-(methylsulfonamidomethyl)piperidin-1-yl)quinazolin-6-yl)picolinamide] | > 100 µM | 4% | 5% | – | –
CS(=O)(=O)NCC1(F)CCCN(c2ncnc3cc(F)c(C#N)cc23)C1 (centres unmarked) [Compound 50, N-((1-(6-cyano-7-fluoroquinazolin-4-yl)-3-fluoropiperidin-3-yl)methyl)methanesulfonamide] | > 100 µM | 2% | 18% | – | –
CS(=O)(=O)NCC1CCCN(c2ncnc3cc(F)c(C#N)cc23)C1.Cl (centres unmarked) [Compound 29a, N-((1-(6-cyano-7-fluoroquinazolin-4-yl)piperidin-3-yl)methyl)methanesulfonamide hydrochloride] | – | – | – | 35% | 55%
